Tested on: serum lipids and serum lipid hydroperoxide
Test: Pharmacological test method A for anti-hyperlipidemic activity (serum lipids, 2 weeks feeding)
Type: in vivo, male Wistar strain rats
Details: for AI [(TC - HDL-C)/(HDL-C)] / HDL-C in serum / LPO in serum / PL in serum / TC in serum / TG in serum: 1% in hyperlipidemic diet, 2 weeks; for AI % of diff. / AI Diff. / HDL-C % of diff. / HDL-C Diff. / LPO % of diff. / LPO Diff. / PL % of diff. / PL Diff. / TC % of diff. / TC Diff. / TG % of diff. / TG Diff.: versus control group
In short: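 Serum TC, HDL-C (heparin precipitation), PL, TG and LPO measured by colorimetric kits, largely at 500 nm, from abdominal aorta blood after 16 h fasting. Rats (male Wistar, 10/group) ate a cholesterol/cholic acid diet 10 g/day for 2 weeks, supplemented with 1% each of three cycloartane triterpenoids.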

Row | Structure (SMILES) | AI [(TC - HDL-C)/(HDL-C)] | HDL-C in serum [mg/dL] | LPO in serum [nmol/mL] | PL in serum [mg/dL] | TC in serum [mg/dL] | TG in serum [mg/dL] | AI % of diff. [%] | AI Diff. | HDL-C % of diff. | HDL-C Diff. | LPO % of diff. [%] | LPO Diff. [nmol/mL] | PL % of diff. [%] | PL Diff. [mg/dL] | TC % of diff. [%] | TC Diff. [mg/dL] | TG % of diff. | TG Diff.
1 | CCCCC/C=C\C/C=C\CCCCCCCC(=O)OC1CCC23CC24CCC2(C)C(C(C)CCC=C(C)C)CCC2(C)C4CCC3C1(C)C (stereo not drawn) [Example 25, cycloartenyl linolate] | 0.705 | 92.3 | 1.67 | 144.6 | 157.4 | 34.0 | -42.3 | -0.517 | +6.7% | +5.8 mg/dl | -25.6 | -0.57 | -16.2 | -28.0 | -18.1 | -34.8 | -6.2% | -2.3 mg/dL
2 | CC(C)=C(C)CCC(C)C1CCC2(C)C3CCC4C(C)(C)C(OC(=O)c5cccc(N)c5)CCC45CC35CCC12C (stereo not drawn) [Example 49, cyclobranyl-m-aminobenzoate] | 1.288 | 58.0 | 2.02 | 128.4 | 132.7 | 18.3 | -30.3 | -0.559 | -1.2% | -0.7 mg/dL | -13.7 | -0.32 | -13.5 | -20.0 | -20.6 | -34.4 | -26.2% | -6.5 mg/dL
3 | C=C(CCC(C)C1CCC2(C)C3CCC4C(C)(C)C(OC(=O)C=Cc5ccc(O)c(OC)c5)CCC45CC35CCC12C)C(C)C (stereo not drawn) [Example 100-3, 24-methylenecycloartanyl-4-hydroxy-3-methoxycinnamate] | 1.393 | 73.8 | 1.89 | 152.9 | 176.6 | 35.1 | -8.2 | -0.124 | -9.4% | -7.7 mg/dL | -16.7 | -0.38 | -11.9 | -20.7 | -13.9 | -28.5 | +2.3% | +0.8 mg/dl
4 | CC(C)=CCCC(C)C1CCC2(C)C3CCC4C(C)(C)C(OC(=O)c5ccc(O)cc5)CCC45CC35CCC12C (stereo not drawn) [Example 10, cycloartenyl-p-hydroxybenzoate] | 1.543 | 57.6 | 1.73 | 123.3 | 146.5 | 27.3 | -12.7 | -0.224 | -4.3% | -2.6 mg/dL | -31.6 | -0.80 | -9.8 | -13.4 | -12.1 | -20.1 | +0.4% | +0.1 mg/dl
5 | CCCOc1cc(C=CC(=O)OC2CCC34CC35CCC3(C)C(C(C)CCC=C(C)C)CCC3(C)C5CCC4C2(C)C)ccc1O (stereo not drawn) [Example 74, cycloartenyl-4-hydroxy-3-propoxycinnamate] | 0.787 | 92.4 | 2.09 | 162.1 | 165.1 | 33.1 | -21.5 | -0.215 | -4.0% | -3.8 mg/dL | -10.4 | -0.24 | -10.4 | -18.8 | 14.3 | -27.5 | -0.3% | -0.1 mg/dL
6 | CC(C)=CCCC(C)C1CCC2(C)C3CCC4C(C)(C)C(OC(=O)C=Cc5cccc(N)c5)CCC45CC35CCC12C (stereo not drawn) [Example 108, cycloartenyl ester of m-aminocinnamic acid] | 3.627 | 46.6 | 2.20 | 151.4 | 215.6 | 29.0 | -53.7 | -4.213 | +26.3% | +9.7 mg/dl | -21.4 | -0.60 | -8.6 | -14.2 | -33.9 | -110.6 | -14.7% | -5.0 mg/dL
